Assay results taken from ChEMBL document CHEMBL1149464, “Structure-guided synthesis of tamoxifen analogs with improved selectivity for the orphan ERRgamma” (Bioorg Med Chem Lett, 2006).

Assays:
[1] = target: T1, Estrogen-related receptor gamma (Homo sapiens, UniProt P62508)
T1 sequence (P62508 whole entry): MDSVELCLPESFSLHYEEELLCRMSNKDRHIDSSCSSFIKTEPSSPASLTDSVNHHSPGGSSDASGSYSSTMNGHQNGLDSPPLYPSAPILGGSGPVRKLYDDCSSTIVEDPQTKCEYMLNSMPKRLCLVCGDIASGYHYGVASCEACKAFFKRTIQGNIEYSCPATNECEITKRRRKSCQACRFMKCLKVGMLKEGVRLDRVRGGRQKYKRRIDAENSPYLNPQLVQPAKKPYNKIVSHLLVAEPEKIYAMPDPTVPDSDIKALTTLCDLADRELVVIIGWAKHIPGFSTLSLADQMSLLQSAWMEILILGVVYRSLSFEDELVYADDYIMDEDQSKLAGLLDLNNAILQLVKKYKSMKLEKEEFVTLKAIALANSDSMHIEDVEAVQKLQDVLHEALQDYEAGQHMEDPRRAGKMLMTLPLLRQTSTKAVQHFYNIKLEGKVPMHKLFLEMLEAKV

[2] = target: T1, Estrogen-related receptor gamma; assay: Displacement of [3H]4-OHT from ERRgamma at 3 uM
[3] = target: T2, Estrogen receptor (Homo sapiens, UniProt P03372)
T2 sequence (P03372 whole entry): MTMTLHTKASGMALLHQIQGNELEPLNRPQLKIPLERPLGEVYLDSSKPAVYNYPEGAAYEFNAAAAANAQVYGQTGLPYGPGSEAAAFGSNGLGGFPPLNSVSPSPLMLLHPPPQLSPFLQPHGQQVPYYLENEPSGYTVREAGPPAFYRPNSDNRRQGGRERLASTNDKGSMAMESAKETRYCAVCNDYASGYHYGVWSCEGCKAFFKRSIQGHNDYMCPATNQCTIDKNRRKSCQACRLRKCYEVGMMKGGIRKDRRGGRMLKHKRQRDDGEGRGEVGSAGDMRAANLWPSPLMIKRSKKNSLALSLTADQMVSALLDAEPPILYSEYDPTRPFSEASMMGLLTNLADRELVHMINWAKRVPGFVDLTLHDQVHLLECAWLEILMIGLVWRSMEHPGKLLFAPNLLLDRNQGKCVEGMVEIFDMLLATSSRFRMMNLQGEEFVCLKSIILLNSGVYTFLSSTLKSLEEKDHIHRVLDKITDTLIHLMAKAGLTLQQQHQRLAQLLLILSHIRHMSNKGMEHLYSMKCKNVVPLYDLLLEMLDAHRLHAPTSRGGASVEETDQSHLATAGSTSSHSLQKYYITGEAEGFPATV

[4] = species: Homo sapiens; assay: Selectivity for ERRgamma over ERalpha relative to 4-hydroxytamoxifen

Row | Structure (SMILES) | IC50 [1] | IC50 [2] | also measured
1 | CSCCC/C(=C(\c1ccc(O)cc1)c1ccc(OCCN(C)C)cc1)c1ccccc1 | 1000 nM | – | –
2 | CN(C)CCOc1ccc(/C(=C(/CCCC#N)c2ccccc2)c2ccc(O)cc2)cc1 | 200 nM | – | –
3 | CN(C)CCOc1ccc(/C(=C(/CCC#N)c2ccccc2)c2ccc(O)cc2)cc1 | 1300 nM | – | –
4 | CNCCC/C(=C(\c1ccc(O)cc1)c1ccc(OCCN(C)C)cc1)c1ccccc1 | – | Not Active | –
5 | CN(C)CCOc1ccc(/C(=C(/CCCC(=O)O)c2ccccc2)c2ccc(O)cc2)cc1 | – | Not Active | –
6 | CN(C)CCOc1ccc(/C(=C(/CCCl)c2ccccc2)c2ccc(O)cc2)cc1 [4-HYDROXYTORMIFENE] | 13 nM | – | –
7 | CC(=O)NCCC/C(=C(\c1ccc(O)cc1)c1ccc(OCCN(C)C)cc1)c1ccccc1 | – | Not Active | –
8 | CN(C)CCC/C(=C(\c1ccc(O)cc1)c1ccc(OCCN(C)C)cc1)c1ccccc1 | – | Not Active | –

Further lines, with some results ahead:

Row | IC50 [1] | Structure (SMILES) | IC50 [2] | also measured
9 | 160 nM | CN(C)CCOc1ccc(/C(=C(/CCCN=[N+]=[N-])c2ccccc2)c2ccc(O)cc2)cc1 | – | –
10 | 130 nM | CN(C)CCOc1ccc(/C(=C(/CCCCl)c2ccccc2)c2ccc(O)cc2)cc1 | – | –
11 | 790 nM | CN(C)CCOc1ccc(/C(=C(/CCCCO)c2ccccc2)c2ccc(O)cc2)cc1 | – | –
12 | 5 nM | CN(C)CCOc1ccc(/C(=C(/CCN=[N+]=[N-])c2ccccc2)c2ccc(O)cc2)cc1 | – | IC50 [3]: 1 nM; Ratio IC50 [4]: 1.6
